The test system of one experiment is HCC-44. Nature of the experiment: CellTiterGlo Cell Proliferation Assay, HCC-44. It is filed as cell-based. Conditions: Homo sapiens, HCC44, KRas G12C, Lung, 96 hr, read-out: IC50 (μM) in 2 D cell proliferation. As to the method:
(§1) A panel of tumor cell lines harboring KRas G12C or other KRas mutations are collected (Table 6). All cell lines are from ATCC or other sources indicated.
(§2) Typically cells are cultured in RPMI1640 or Dulbecco's modified Eagle's medium (DMEM, GIBCO) supplemented with 10% FBS (GIBCO, Invitrogen). For 2D culture cells (4×10^3/well) maintained in growth medium described above, are plated onto 96 well tissue culture plates Corning® Cat. 3603) a day before the treatment. For 3D culture 8000 cells/well are seeded onto 96 well ultra-low attachment tissue culture plates (Corning, #3474). The cells are treated compound for 96 hr, and then are analyzed for viability using the CellTiterGlo® Luminescent Cell Viability Assay® (Promega #G7572 for 2D and Promega #G9683 for 3D cultures) according to manufacturer's instructions and an EnVision™ plate reader. Nonlinear regression and sigmoidal dose-response curves are used to calculate the half maximal inhibitory concentration (IC50) with GraphPad Prism 4® software.
(In general: In ATP-based viability assays light output follows the ATP content of the culture.)

For another experiment, the system named is H460. Nature of the experiment: CellTiterGlo Cell Proliferation Assay, H460. The experiment is classed as cell-based. To be noted: Homo sapiens, NCI-H460, KRas Q61H, lung, 96 hr. On the procedure:
as §1, §2

Experiment [1] relates to pMEK in H2122 xenograft tumors. As to the kind of experiment: In vivo target inhibition/PD, H2122 xenograft, pMEK. To be noted: Mus musculus, NCI-H2122; for inhibition at 10 mg/kg: 10 mg/kg single dose. As to the method: To evaluate in vivo target inhibition and anti-tumor efficacy of a compound, Human lung cancer cells, H358 or H2122 are implanted into nude mice xenograft tumor models. Either H358 or H2122 cells (10×10^6 in a 1:1 Matrigel® mix, 0.2 mL total volume) are implanted by subcutaneous injection in hind leg of nude female mice (Harlan Laboratories). A total of 5 mice each group are used for efficacy study, and a total of 3-4 mice each group are used for target engagement and PD study. Treatment is initiated with oral administration (gavage) of a test compound or vehicle (20% Captisol®, 25 mM phosphate, pH 2.0 in 0.2 mL volume when the tumor size reaches approximately […]. Tumor growth and body weight are monitored over time to evaluate efficacy and signs of toxicity. Bidimensional measurements of tumors are performed twice a week and tumor volumes are calculated based on mid-axis length and mid-axis width. Tumor volume data are transformed to a log scale to equalize variance across time and treatment groups. The log volume data are analyzed with a two-way repeated measures analysis of variance by time and treatment using the mixed procedures in SAS software (version 8.2). The correlation model for the repeated measures is spatial power. Treated groups are compared to the control group at each time point. The mixed procedure is also used separately for each treatment group to calculate adjusted means and standard errors at each time point. Both analyses account for the autocorrelation within each animal. The adjusted means and standard errors are plotted for each treatment group versus time.
For in vivo target inhibition and PD analysis, tumors are ground by mortar and pestle on dry ice and tumor fragments are added to 800 μL of lysis buffer containing 1% Triton X100, 25 mM Tris pH 7.5, 150 mM NaCl, 1 mM EDTA, and 1 mM EGTA with Halt protease and phosphatase inhibitor cocktail (Thermo Scientific, cat. no. 1861281) in lysing matrix D tubes (MP Biomedical®, cat. no. 6913-500) with one additional large bead (MP Biomedical® ¼″ ceramic sphere bead cat. no. 6540-412) per tube. Tumor fragments are homogenized in a Thermo Bio101® fast prep (FP120) at setting 4 for […] while cold for a total of 2 times. Lysates are spun at 14,000 rpm for 10 min at 4° C. to clarify. Protein estimation is done on the lysate supernatant using a BioRad Dc® protein assay and lysates are diluted in complete lysis/binding buffer from the Ras GTPase Chemi ELISA Kit® (Active Motif, cat. no. 52097). The active KRas ELISA was performed as follows: Glutathione-coated ELISA wells were incubated with diluted RAF1-GST in complete lysis/binding buffer for 1 hr at 4° C. with gentle agitation. Wells are washed 3 times with wash buffer and 100 μg of lysates are added to each well and incubated at RT for 1 hr with mild agitation. The wells are washed an additional 3 times, then primary antibody, diluted in antibody binding buffer, is added to each well. The plates are incubated for 1 hr. The wells are washed 3 more times before adding HRP-conjugated secondary antibody, diluted in antibody binding buffer, to each well. The plates are incubated at RT for 1 hr. ELISA wells are washed 4 times, chemiluminescent reagents is added and then luminescence is read. For pERK Meso Scale Discovery ELISA, 25 μg of protein containing 0.1% SDS is used; for pMEK Meso Scale Discovery ELISA, 50 μg of protein without SDS is used. Meso Scale Discovery Whole Cell Lysate Kits for pERK and pMEK are provided by Meso Scale Discovery.
After a single dose, the tumor samples are harvested at different time points. The tumor lysates are prepared as described above. The inhibition of pERK, pMEK, and active KRas is measured as described above.

Read-outs that look alike come from different tables or passages of the source.

Regarding `C=CC(=O)N1CCN(c2ncnc3c(F)c(-c4ccc(F)c5sc(N)nc45)c(Cl)cc23)CC1` [Example 1, 1-{4-[7-(2-Amino-7-fluoro-1,3-benzothiazol-4-yl)-6-chloro-8-fluoroquinazolin-4-yl]piperazin-1-yl}prop-2-en-1-one], the IC50 in the experiment with HCC-44 was found to be 0.221 µM; with H460 (read-out: IC50 (μM) in 2 D cell proliferation), 11.6 µM; in the experiment with H460 (read-out: IC50 (μM) in 3 D spheroid cell proliferation) it was 6.07 µM. Also, the inhibition at 10 mg/kg was 45.9% in experiment [1] (H2122 xenograft, 2 hr, read-out: % Inhibition pMEK); 60.4% in experiment [1] (H2122 xenograft, 4 hr, read-out: % Inhibition pMEK); 25.7% in experiment [1] (H2122 xenograft, 8 hr, read-out: % Inhibition pMEK); -0.4% in experiment [1] (H2122 xenograft, 12 hr, read-out: % Inhibition pMEK); -8.4% in experiment [1] (H2122 xenograft, 24 hr, read-out: % Inhibition pMEK); 0 to 60% in experiment [1] (H2122 xenograft, from 2-12 hr, read-out: pMEK inhibition). For the same compound, the inhibition at 30 mg/kg in experiment [1] (H2122 xenograft, 30 mg/kg single dose, 2 hr, read-out: % Inhibition pMEK) was 62.4%; in experiment [1] (H2122 xenograft, 30 mg/kg single dose, 4 hr, read-out: % Inhibition pMEK), 77.5%; in experiment [1] (H2122 xenograft, 30 mg/kg single dose, 8 hr, read-out: % Inhibition pMEK) it was 72.2%; in experiment [1] (H2122 xenograft, 30 mg/kg single dose, 12 hr, read-out: % Inhibition pMEK) it was 44.7%; in experiment [1] (H2122 xenograft, 30 mg/kg single dose, 24 hr, read-out: % Inhibition pMEK), -15.5%; in experiment [1] (read-out: pMEK inhibition), 45 to 78%. In experiment [1] (H2122 xenograft, 100 mg/kg single dose, 4 hr), the inhibition at 100 mg/kg was 79.7%.

What is called inhibition is the change of the read-out against control, counted positive when it falls.
